System: Lemna minor
Assay: Lemna minor in vitro relative growth rate and survival with herbicide Profoxydim
Type: in vivo
Conditions: one week; for relative growth rate (RGR) of Lemna minor plants, substance alone: 10 mg/L in Hoagland medium
Description: The experiment was carried out in Lemna minor growing under in vitro conditions. A stock culture of Lemna minor was maintained on modified Hoagland medium in a controlled environment. […] An experiment was conducted, using fronds free from any visible chlorosis which were taken from the stock cultures and exposed to diverse treatments. For each treatment, six repetitions with three fronds per repetition as the initial frond number were used. […] The multiplate was covered with a transparent cover to prevent evaporation. The relative growth was calculated after one week of incubation in the described conditions, and the survival rate was evaluated.

Row | Compound | relative growth rate (RGR) of Lemna minor plants, substance alone | protective effect on relative growth rate in combination with the herbicide Profoxydim (10 mg/L with 10 mg/L Profoxydim)
1 | COc1cc(/C=C/C(=O)O)ccc1O [ferulic acid] | hindering Lemna minor growth | Neither chitosan nor ferulic acid in combination with the herbicide showed this protective effect
2 | CCCC(=NOCC(C)Oc1ccc(Cl)cc1)C1=C(O)CC(C2CCCSC2)CC1=O (stereo not drawn) [Profoxydim] | drastically reduced the RGR | 
